{"source": "patent EP1080724A1", "about": "“MTP ACTIVITY-LOWERING COMPOSITIONS” (Nippon Shinyaku Co., Ltd., priority 1998, dated 1999)", "key": {"[1]": {"tested_on": "HepG2 cells", "assay": "Apo B antisecretory activity (1): apo B secreted into medium, ELISA", "assay_type": "cell-based, human", "settings": "for Apo B secretions (µg/well): HepG2 cells, 24 hours culture, control group 9.92±0.80", "experimental": "HepG2 cells (100×10^4 cells/dish) were sown on 3.5 cm dishes and precultured using 1 ml DME (containing 10% FCS) medium per dish. Following this preculture, the cells were washed with DME medium twice, added to the test medium, and cultured at 37°C under 95% air-5% carbon dioxide for 24 hours. The test medium was prepared by dissolving cycloalliin in dimethyl sulfoxide and diluted with DME medium containing 1% BSA and 0.5 mM oleic acid to a final cycloalliin concentration of 10^-6 M or 10^-4 M.\nAfter 24 hours' culture, the medium was recovered and the amount of apo B secreted into the medium was determined by ELISA. Thus, anti-human apo B antibody (a 100-fold dilution) was distributed into a 96-well ELISA plate, 100 µL per well, and incubated at 37°C for 2 hours. Then, 100 µL/well of Block Ace was added and the plate was further incubated at 37°C for 2 hours. The wells were washed with PBS-Tween × 3 and 100 µL each of apo B standard solution and HepG2 culture were added, followed by further incubation at 4°C for 16 hours. After the wells were washed with PBS-Tween × 3, 100 µL/well of anti-human apo B marker antibody (a 200-fold dilution) was added and the plate was incubated at 37°C for 2 hours. The wells were washed with PBS-Tween × 3, then 100 µL/well of the substrate solution was added, and the plate was incubated at 25°C for 30 minutes. The reaction was stopped by adding 50 µL of 4.5 M H2SO4 and the absorbance at 482 nm was measured to estimate the amount of apo B secretion."}, "[2]": {"tested_on": "HepG2 cells", "assay": "Apo B antisecretory activity (2): apo B secretions, ELISA", "assay_type": "cell-based", "settings": "10 µM; for Apo B secretions (ng/mg protein) After 24 hr of culture: control group 2544±425; for Apo B secretions After 24 hr of culture (%) / Apo B secretions After 48 hr of culture (%): percent of control group (100); for Apo B secretions (ng/mg protein) After 48 hr of culture: control group 2080±110", "experimental": "HepG2 cells were cultured in DME medium supplemented with 1% BSA and 0.5 mM oleic acid for 24 hours. Then, the medium was changed to 1% BSA-DME medium containing 10 µM of the amino acid of the invention and 0.5 µci of [^14C] acetic acid was simultaneously added. The cells and medium were recovered after 24 hours or 48 hours of culture. The recovered cells were homogenized by sonication, and after quantitation of protein, the amount of apo B secretions was determined by ELISA."}, "[3]": {"tested_on": "HepG2 cells", "assay": "TG antisecretory activity: secreted triglyceride from labeled lipid in medium", "assay_type": "cell-based", "settings": "10 µM, 24 hours of culture, control group 161.2± 2.2", "experimental": "HepG2 cells were cultured in DME medium supplemented with 1% BSA and 0.5 mM oleic acid for 24 hours. Then, the medium was changed to 1% BSA-DME containing 10 µM of the amino acid of the invention and simultaneously 0.5 µci of [^14C] acetic acid was added. The cells and medium were recovered after 24 hours of culture. The recovered cells were homogenized by sonication, and after quantitation of protein, the amount of secreted triglyceride (TG) was determined from the amount of labeled lipid in the medium."}, "[4]": {"tested_on": "MTP", "assay": "MTP activity-lowering activity (MTP activity in liver homogenate of orally dosed rats, method of Wetterau)", "assay_type": "in vivo", "settings": "SD rats, control group 9.09±1.0", "experimental": "SD rats weighing about 200 g in groups of 6 were given 20 mg or 60 mg of the hydrochloride of the amino acid of the invention in 10 ml of water in 3 divided doses daily for 2 weeks. Thereafter, the liver was excised and homogenized using a homogenizing buffer (50 mM Tris (pH 7.4), 50 mM potassium chloride, […], leupeptin (5 µg/ml) and 2 mM phenylmethylsulfonyl fluoride) and the homogenate was centrifuged to give a liver homogenate. This liver homogenate was adjusted to a protein concentration of about 2 mg/mL with the same homogenizing buffer and 1 part of deoxycholate solution (0.56%, pH 7.5) was added to 10 parts of the homogenate. The reaction was then carried out at 4°C for 30 minutes, whereby MTP was liberated from the microsomal fraction. The membrane fraction was then removed by centrifugation to give a supernatant. This supernatant was diluted with Tris buffer (a buffer solution containing 15 mM Tris (pH 7.4), 40 mM NaCl, 1 mM EDTA, 0.02% NaN3) and dialyzed against the same buffer at 4°C overnight. The dialysate thus obtained was analyzed for MTP activity by the method of J. R. Wetterau [Science, 258, 999 (1992)]."}, "[5]": {"settings": "60 mg in 10 ml of water in 3 divided doses daily for 2 weeks"}}, "note": "Counter-ions that a name gives are not always drawn.", "data": [{"compound": "C[C@H]1C[S@+]([O-])C[C@@H](C(=O)O)N1", "note": "[Cycloalliin, (1S,3R,5S)-5-methyl-1,4-thiazane-3-carboxylic acid 1-oxide]", "values": [{"measurement": "Apo B secretions (µg/well)", "setting": "[1]; 10^-4 M", "value": "7.67±1.31", "unit": "µg/well"}, {"measurement": "Apo B secretions (µg/well)", "setting": "[1]; 10^-6 M", "value": "7.54±1.13", "unit": "µg/well"}, {"measurement": "apo B secretion (result in words)", "setting": "[1]; summary of Table 2", "value": "significant suppression"}]}, {"compound": "CCSC[C@H](N)C(=O)O", "note": "[S-ethyl-L-cysteine]", "values": [{"measurement": "Apo B secretions (ng/mg protein) After 24 hr of culture", "setting": "[2]", "value": "2390±615", "unit": "ng/mg protein"}, {"measurement": "Apo B secretions After 24 hr of culture (%)", "setting": "[2]", "value": 93.9, "unit": "%"}, {"measurement": "Apo B secretions (ng/mg protein) After 48 hr of culture", "setting": "[2]", "value": "994±111", "unit": "ng/mg protein"}, {"measurement": "Apo B secretions After 48 hr of culture (%)", "setting": "[2]", "value": 47.8, "unit": "%"}, {"measurement": "TG secretions ([^14C]dpm × 10^-2/mg protein)", "setting": "[3]", "value": "102.2± 7.1 [^14C]dpm × 10^-2/mg protein"}]}, {"compound": "CSC[C@H](N)C(=O)O", "note": "[S-methyl-L-cysteine]", "values": [{"measurement": "Apo B secretions (ng/mg protein) After 24 hr of culture", "setting": "[2]", "value": "2511±173", "unit": "ng/mg protein"}, {"measurement": "Apo B secretions After 24 hr of culture (%)", "setting": "[2]", "value": 98.7, "unit": "%"}, {"measurement": "Apo B secretions (ng/mg protein) After 48 hr of culture", "setting": "[2]", "value": "1906±122", "unit": "ng/mg protein"}, {"measurement": "Apo B secretions After 48 hr of culture (%)", "setting": "[2]", "value": 91.6, "unit": "%"}, {"measurement": "TG secretions ([^14C]dpm × 10^-2/mg protein)", "setting": "[3]", "value": "128.2±14.6 [^14C]dpm × 10^-2/mg protein"}]}, {"compound": "C[C@H]1C[S@+]([O-])C[C@@H](C(=O)O)N1", "note": "[Cycloalliin HCl, (1S,3R,5S)-5-methyl-1,4-thiazane-3-carboxylic acid 1-oxide]", "values": [{"measurement": "MTP activity (%)", "setting": "[4]; 20 mg in 10 ml of water in 3 divided doses daily for 2 weeks", "value": "6.12±0.7", "unit": "%"}, {"measurement": "MTP activity (%)", "setting": "[4]; [5]", "value": "4.92±1.0", "unit": "%"}]}, {"compound": "C[S+]([O-])CCC(N)C(=O)O", "note": "(racemic) [DL-methionine sulfoxide]", "values": [{"measurement": "TG secretions ([^14C]dpm × 10^-2/mg protein)", "setting": "[3]", "value": "72.1± 8.5 [^14C]dpm × 10^-2/mg protein"}]}, {"compound": "S-n-propyl-L-cysteine sulfoxide", "values": [{"measurement": "TG secretions ([^14C]dpm × 10^-2/mg protein)", "setting": "[3]", "value": "105.8±18.9 [^14C]dpm × 10^-2/mg protein"}]}, {"compound": "CSC[C@H](N)C(=O)O", "note": "[S-methyl-L-cysteine HCl, S-methyl-L-cysteine]", "values": [{"measurement": "MTP activity (%)", "setting": "[4]; [5]", "value": "5.68±0.6", "unit": "%"}]}, {"compound": "CCCSC[C@H](N)C(=O)O", "note": "[S-n-propyl-L-cysteine]", "values": [{"measurement": "Apo B secretions (ng/mg protein) After 24 hr of culture", "setting": "[2]", "value": "2157± 86", "unit": "ng/mg protein"}, {"measurement": "Apo B secretions After 24 hr of culture (%)", "setting": "[2]", "value": 84.8, "unit": "%"}, {"measurement": "Apo B secretions (ng/mg protein) After 48 hr of culture", "setting": "[2]", "value": "555± 23", "unit": "ng/mg protein"}, {"measurement": "Apo B secretions After 48 hr of culture (%)", "setting": "[2]", "value": 26.7, "unit": "%"}, {"measurement": "TG secretions ([^14C]dpm × 10^-2/mg protein)", "setting": "[3]", "value": "99.0± 9.3 [^14C]dpm × 10^-2/mg protein"}]}, {"compound": "S-methyl-L-cysteine sulfoxide [S-methyl-L-cysteine sulfoxide HCl]", "values": [{"measurement": "MTP activity (%)", "setting": "[4]; [5]", "value": "5.43±0.6", "unit": "%"}]}]}
